Experimental data reported in the supplement of paper PMC8967900.

Tests used:
Assay in all cases: selective drug sensitivity score (sDSS, relative to normal bone marrow) (sDSS (score)); higher = more potent and effective on the cell line relative to normal bone marrow cells
Settings in all cases: 72 h
[1] = system: COG-LL-402h
[2] = system: KASUMI-2
[3] = system: DND-41
[4] = system: RCH-ACV
[5] = system: NALM-16
[6] = system: PF-382
[7] = system: P30-OHKUBO
[8] = system: COG-LL-332h
[9] = system: HAL-01
[10] = system: MHH-CALL-3
[11] = system: TANOUE
[12] = system: CCRF-HSB2
[13] = system: JURKAT
[14] = system: SUP-B15
[15] = system: KASUMI-10
[16] = system: HPB-ALL
[17] = system: COG-LL-355h
[18] = system: COG-LL-319h
[19] = system: COG-LL-317
[20] = system: REH
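Note: ALL cell lines in 384-well plates, five doses spanning 10,000-fold, each plate scaled between vehicle and 100 µmol/L benzalkonium chloride controls, sDSS an adapted area-under-curve metric.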

Row | Structure (SMILES) | selective drug sensitivity score [1] | selective drug sensitivity score [2] | selective drug sensitivity score [3] | selective drug sensitivity score [4] | selective drug sensitivity score [5] | selective drug sensitivity score [6] | selective drug sensitivity score [7] | selective drug sensitivity score [8] | selective drug sensitivity score [9] | selective drug sensitivity score [10] | selective drug sensitivity score [11] | selective drug sensitivity score [12] | selective drug sensitivity score [13] | selective drug sensitivity score [14] | selective drug sensitivity score [15] | selective drug sensitivity score [16] | selective drug sensitivity score [17] | selective drug sensitivity score [18] | selective drug sensitivity score [19] | selective drug sensitivity score [20]
1 | CC[C@]1(O)C[C@H]2CN(CCc3c([nH]c4ccccc34)[C@@](C(=O)OC)(c3cc4c(cc3OC)N(C)[C@H]3[C@@](O)(C(=O)OC)[C@H](OC(C)=O)[C@]5(CC)C=CCN6CC[C@]43[C@@H]65)C2)C1 [Vinblastine] (top concentration 1000 nM) | 4.6 | 6.7 | -0.7 | 14.4 | 5.4 | -5.3 | 9.8 | -4.2 | -5.1 | -0.1 | -9 | -3.4 | 0.5 | 12.9 | -1 | 19.7 | -0.6 | 19.7 | -0.2 | 7.1
2 | CC[C@]1(O)C[C@H]2CN(CCc3c([nH]c4ccccc34)[C@@](C(=O)OC)(c3cc4c(cc3OC)N(C=O)[C@H]3[C@@](O)(C(=O)OC)[C@H](OC(C)=O)[C@]5(CC)C=CCN6CC[C@]43[C@@H]65)C2)C1 [Vincristine] (top concentration 1000 nM) | 13.7 | 8.92 | 2.02 | 17.2 | 12.3 | -0.18 | 17.4 | 4.22 | -6.38 | 4.22 | -11.1 | 1.62 | 4.52 | 18.5 | 4.72 | 14.1 | 1.22 | 16.3 | 8.92 | 17.5
3 | FC(F)c1nc2ccccc2n1-c1nc(N2CCOCC2)nc(N2CCOCC2)n1 [ZSTK474] (top concentration 10000 nM) | 13.6 | 6.76 | -3.14 | 28.4 | 0.56 | 5.66 | 13.3 | 3.86 | 18.5 | 10.3 | -7.04 | 3.76 | 1.76 | 2.56 | 0.96 | -1.04 | 14.4 | 4.86 | 1.46 | 9.36
